Here are results for 36 compounds from patent publication US5486525A, “Platelet activating factor antagonists: imidazopyridine indoles” (priority 1994, dated 1996).

Counter-ions that a name gives are not always drawn.

One assay deals with T1, PAF receptor (Oryctolagus cuniculus, UniProt G1TEI7).
T1 construct: platelet membranes were prepared by centrifugation and washing; tissue Pel-Freez (Rogers, AR); host or cells: rabbit blood platelets (membranes prepared from citrated whole rabbit blood)
T1 sequence (G1TEI7 1-342): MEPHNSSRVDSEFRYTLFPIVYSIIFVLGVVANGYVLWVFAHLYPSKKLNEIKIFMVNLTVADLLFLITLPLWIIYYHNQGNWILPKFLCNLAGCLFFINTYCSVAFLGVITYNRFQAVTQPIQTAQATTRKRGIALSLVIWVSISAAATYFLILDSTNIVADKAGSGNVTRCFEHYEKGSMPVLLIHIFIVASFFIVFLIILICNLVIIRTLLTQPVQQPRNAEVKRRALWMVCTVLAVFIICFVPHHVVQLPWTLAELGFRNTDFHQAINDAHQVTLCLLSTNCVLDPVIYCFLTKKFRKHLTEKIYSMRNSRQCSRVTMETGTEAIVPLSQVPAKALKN
Briefly: PAF receptor binding assay: inhibition of specific [^3 H]C18 -PAF binding to rabbit platelet membranes.
Conditions: not given
As usually defined, the inhibition is the share of the control response that was lost under treatment. `Cc1nc2cnccc2n1CC(=O)c1cn(C(=O)N(C)C)c2ccccc12` [Example 26, 1-N,N-Dimethylcarbamoyl-3-[(1H-2-methylimidazo[4.5-c]pyrid-1-yl)methylcarbonyl]indole]: testing at 1 µM gave an inhibition of 7%. In general, Ki refers to a measure of affinity in units of concentration, obtained from inhibition or displacement. The compound `COC(=O)c1cccc2c1c(C(=O)c1ccc(Cn3c(C(F)(F)F)nc4ccccc43)cc1)cn2C(=O)N(C)C` [Example 162, 1-N,N-Dimethylcarbamoyl-4-methoxycarbonyl-3-{4-[(1H-2-(trifluoromethyl)benzimidazolyl)methyl]benzoyl}indole] showed a Ki of 0.014 µM. `Cc1nc2cnccc2n1Cc1ccc(C(=O)c2cn(C(=O)N(C)C)c3cc(-c4ccc(F)cc4)ccc23)cc1` [Example 4, 1-N,N-Dimethylcarbamoyl-6-(4-fluorophenyl)-3-{4-[(1H-2-methylimidazo[4.5-c]pyrid-1-yl)methyl]benzoyl}indole] yielded a Ki of 0.0023 µM. The compound `Cc1nc2ccccc2n1Cc1ccc(C(=O)c2cn(C(=O)N(C)C)c3cc(-c4ccc(F)cc4)ccc23)cc1` [Example 2, 1-N,N-Dimethylcarbamoyl-6-(4-fluorophenyl)-3-{4-[(1H-2-methylbenzimidazolyl)methyl]benzoyl}indole] displayed an inhibitory constant (Ki) of 0.056 µM. For the compound `Cc1nc2ccncc2n1CC(=O)c1cn(C(=O)N(C)C)c2cc(-c3ccc(F)cc3)ccc12` [Example 23, 1-N,N-Dimethylcarbamoyl-6-(4-fluorophenyl)-3-[(3H-2-methylimidazo[4.5-c]pyrid-3-yl)methylcarbonyl]indole], the inhibition at 1 µM came to 7%. Consider `CN(C)C(=O)n1cc(C(=O)c2ccc(Cn3cnc4cnccc43)cc2)c2ccccc21` [Example 30], for which affinity was put at a Ki of 0.342 µM. The same measure, in the same setting: then `C#Cc1cccc2c1c(C(=O)c1ccc(Cn3c(C)nc4cnccc43)cc1)cn2C(=O)N(C)C` [Example 107, 1-N,N-Dimethylcarbamoyl-4-ethynyl-3-{4-[(1H-2-methylimidazo[4.5-c]pyrid-1-yl)methyl]benzoyl}indole], with 0.0006 µM. The compound `CN(C)C(=O)n1cc(C(=O)c2ccc(Cn3c(-c4ccccc4)nc4cnccc43)cc2)c2ccccc21` [Example 32] showed an inhibition at 1 µM of 10%.

With `COC(=O)c1cccc2c1c(C(=O)c1ccc(Cn3c(C)nc4cnccc43)c(F)c1)cn2C(=O)N(C)C` [Example 96, 1-N,N-Dimethylcarbamoyl-4-methoxycarbonyl-3-{3-fluoro-4-[(1H-2-methylimidazo[4,5-c]pyrid-1-yl)methyl]benzoyl}indole], the Ki is 0.0077 µM.

`CN(C)C(=O)n1cc(C(=O)c2ccc(Cn3c(C(F)(F)F)nc4cnccc43)cc2)c2ccccc21` [Example 29] yielded a Ki of 0.494 µM. In the case of `Cc1nc2cnccc2n1CC(=O)c1cn(C(=O)N(C)C)c2cc(-c3ccc(F)cc3)ccc12` [Example 24, 1-N,N-Dimethylcarbamoyl-6-(4-fluorophenyl)-3-[(1H-2-methylimidazo[4.5-c]pyrid-1-yl)methylcarbonyl]indole], the inhibition at 1 µM was 6%. For `COC(=O)c1cccc2c1c(C(=O)c1ccc(Cn3c(C)nc4cnccc43)cc1)cn2CC(=O)C(C)(C)C` [Example 135, 1-(1-Pinacolyl)4-methoxycarbonyl-3-{4-[(1H-2-methylimidazo[4.5-c]pyrid-1-yl)methyl]benzoyl}indole], the Ki amounted to 0.0013 µM. For `Cc1nc2cnccc2n1Cc1ccc(C(=O)c2cn(C(=O)N(C)C)c3cccc(Br)c23)cc1` [Example 102, 1-N,N-Dimethylcarbamoyl-4-bromo-3-{4-[(1H-2-methylimidazo[4.5-c]pyrid-1-yl)methyl]benzoyl}indole], the Ki turned out to be 0.01 µM.

In turn, `Cc1nc2cnccc2n1Cc1cccc(C(=O)c2cn(C(=O)N(C)C)c3ccccc23)c1` [Example 18, 1-N,N-Dimethylcarbamoyl-3-{3-[(1H-2-methylimidazo[4.5-c]pyrid-1-yl)methyl]benzoyl}indole] yielded a Ki of 0.323 µM. The same measure, in the same setting: then `Cc1nc2cnccc2n1Cc1ccc(C(=O)c2cn(C(=O)N(C)C)c3cccc(C#N)c23)cc1` [Example 150, 1-N,N-Dimethylcarbamoyl-4-cyano-3-{4-[(1H-2-methylimidazo[4.5-c]pyrid-1-yl)methyl]benzoyl}indole hydrochloride], with 0.04 µM. As for `Cc1nc2ccn(Cc3ccc(C(=O)c4cn(C(=O)N(C)C)c5ccccc45)cc3)cc-2n1` [Example 16, 1-N,N-Dimethylcarbamoyl-3-[4-(5H-2-methylimidazo[4.5-c]pyrid-5-ylmethyl)benzoyl]indole], 100 µM produced 18% inhibition. The compound `Cc1nc2cnccc2n1Cc1ccc(C(=O)c2cn(C(=O)N(C)C)c3cccc(C(=O)N(C)C)c23)cc1` [Example 112, 1,4-di-N,N-Dimethylcarbamoyl-3-{4-[(1H-2-methylimidazo[4.5-c]pyrid-1-yl)methyl]benzoyl}indole] yielded a Ki of 0.15 µM. Compound `Cc1nc2cnccc2n1-c1ccc(C(=O)c2cn(C(=O)N(C)C)c3cc(-c4ccc(F)cc4)ccc23)cc1` [Example 10, 1-N,N-Dimethylcarbamoyl-6-(4-fluorophenyl)-3-[4-(1H-2-methylimidazo[4.5-c]pyrid-1-yl)benzoyl]indole] yielded a Ki of 0.258 µM. Still for that read-out and setting: the value for `CCOCCn1cc(C(=O)c2ccc(Cn3c(C)nc4cnccc43)cc2)c2c(Cl)cccc21` [Example 138, 1-(2-Ethoxyethyl)-4-chloro-3-{4-[(1H-2-methylimidazo[4.5-c]pyrid-1-yl)methyl]benzoyl}indole] was 0.0022 µM; that for `Cc1cccc2c1c(C(=O)c1ccc(Cn3c(C)nc4cnccc43)cc1)cn2C(=O)N(C)C` [Example 122, 1-N,N-Dimethylcarbamoyl-4-methyl-3-(4-[(1H-2-methylimidazo[4.5-c]pyrid-1-yl)methyl]benzoyl}indole] was 0.0008 µM. In the case of `Cc1nc2cnccc2n1-c1ccc(C(=O)c2cn(C(=O)N(C)C)c3ccccc23)cc1` [Example 22, 1-N,N-Dimethylcarbamoyl-3-{4-[(1H-2-methylimidazo[4.5-c]pyrid-1-yl)]benzoyl}indole], affinity was put at a Ki of 0.146 µM. Still for that read-out and setting: the value for `Cc1nc2ncccc2n1Cc1ccc(C(=O)c2cn(C(=O)N(C)C)c3ccccc23)cc1` [Example 28, 1-N,N-Dimethylcarbamoyl-3-{4-[(1H-2-methylimidazo[4.5-b]pyrid-1-yl)methyl]benzoyl}indole] was 0.087 µM; that for `Cc1nc2ccncc2n1Cc1ccc(C(=O)c2cn(C(=O)N(C)C)c3cc(-c4ccc(F)cc4)ccc23)cc1` [Example 7, 1-N,N-Dimethylcarbamoyl-6-(4-fluorophenyl)-3-{4-[(3H-2-methylimidazo[4.5-c]pyrid-3-yl)methyl]benzoyl}indole] was 0.7 µM.

As for `COC(=O)c1cccc2c1c(C(=O)c1ccc(Cn3c(C)nc4cnccc43)cc1)cn2S(=O)(=O)N(C)C` [Example 131, 1-N,N-Dimethylsulfamoyl-4-methoxycarbonyl-3-{4-[(1H-2-methylimidazo[4.5-c]pyrid-1-yl)methyl]benzoyl}indole], the Ki is 0.0047 µM.

Staying with this assay, now noted: Table 1; @ 1.0 μM; read-out: % Inhibition.
Consider `Cc1nc2ccncc2n1CC(=O)c1cn(C(=O)N(C)C)c2ccccc12` [Example 25, 1-N,N-Dimethylcarbamoyl-3-[(3H-2-methylimidazo[4.5-c]pyrid-3-yl)methylcarbonyl]indole], for which the inhibition at 1 µM amounted to 14%.

The assay is the same for the next values; noted with them: Table 1; rabbit platelet membranes, 0.6 nM [^3 H]C18 -PAF, 60 minutes at room temperature; Ki by Cheng and Prusoff.
`COC(=O)c1cccc2c1c(C(=O)c1ccc(Cn3c(C)nc4c(Cl)nccc43)cc1)cn2C(=O)N(C)C` [Example 174, 1-N,N-Dimethylcarbamoyl-4-methoxycarbonyl-3-{4-[(4-chloro-1H-2-methylimidazo[4.5-c]pyrid-1-yl)methyl]benzoyl}indole]: affinity was put at a Ki of 0.004 µM.

Still in this assay, the particulars now being: Table 1; rabbit platelet membranes, 0.6 nM [^3 H]C18 -PAF, 60 minutes at room temperature; Ki by Cheng and Prusoff; read-out: Ki.
In the case of `COC(=O)c1cccc2c1c(S(=O)(=O)c1ccc(Cn3c(C)nc4cnccc43)cc1)cn2C(=O)N(C)C` [Example 141, 1-N,N-Dimethylcarbamoyl-4-methoxycarbonyl-3-{4-[(1H-2-methylimidazo[4.5-c]pyrid-1-yl)methyl]phenylsulfonyl}indole], the Ki came to 0.02 µM. Still for that read-out and setting: the value for `Cc1nc2cnccc2n1Cc1ccc(C(=O)c2c[nH]c3cc(-c4ccc(F)cc4)ccc23)cc1` [Example 3, 6-(4-Fluorophenyl)-3-{4-[(1H-2-methylimidazo[4.5-c]pyrid-1-yl)methyl]benzoyl}indole] was 0.075 µM. Turning to “1-N,N-Dimethylcarbamoyl-4-chloro-3-{4-[(1H-2-methyl-5- and 6-chlorobenzimidazoyl)methyl]benzoyl}indole [Example 159]”, the Ki turned out to be 0.009 µM. On the same count and under the same terms, then `Cc1nc2ccncc2n1Cc1cccc(C(=O)c2c[nH]c3ccccc23)c1` [Example 19, 3-{3-[(3H-2-Methylimidazo[4.5-c]pyrid-3-yl)methyl]benzoyl}indole], with 0.28 µM. The same measure, in the same setting: the value for `Cc1nc2cnccc2n1Cc1cccc(C(=O)c2c[nH]c3ccccc23)c1` [Example 17, 3-{3-[(1H-2-Methylimidazo[4.5-c]pyrid-1-yl)methyl]benzoyl}indole] was 0.422 µM; that for `Cc1nc2ccncc2n1Cc1ccc(C(=O)c2c[nH]c3cc(-c4ccc(F)cc4)ccc23)cc1` [Example 6, 6-(4-Fluorophenyl)-3-{4-[(3H-2-methylimidazo[4.5-c]pyrid-3-yl)methyl]benzoyl}indole] was 0.14 µM; that for `COC(=O)c1cccc2c1c(C(=O)CCCCCn1c(C)nc3cnccc31)cn2C(=O)N(C)C` [Example 126] was 0.062 µM.

In the case of `Cc1nc2cnccc2n1Cc1ccc(C(=O)c2c[nH]c3ccccc23)cc1` [Example 13, 3-{4-[(1H-2-Methylimidazo[4.5-c]pyrid-1-yl)methyl]benzoyl}indole], the Ki is 0.15 µM. Still for that read-out and setting: the value for `Cc1nc2cnccc2n1Cc1cccc(C(=O)c2c[nH]c3cc(-c4ccc(F)cc4)ccc23)c1` [Example 11, 6-(4-Fluorophenyl)-3-{3-[(1H-2-methylimidazo[4.5-c]pyrid-1-yl)methyl]benzoyl}indole] was 0.086 µM; that for `Cc1nc2cnccc2n1-c1ccc(C(=O)c2c[nH]c3cc(-c4ccc(F)cc4)ccc23)cc1` [Example 9, 6-(4-Fluorophenyl)-3-[4-(1H-2-methylimidazo[4.5-c]pyrid-1-yl)benzoyl]indole] was 0.06 µM.
